Measured values as given in patent US20050208549A1, “Testing endosymbiont cellular organelles and compounds identifiable therewith” (priority 2000, published 2005).

Assays:
[1] = test system: Fibroblast cells; assay: NASBA ratio of mitochondrial DNA to chromosomal DNA in cultured fibroblast cells; format: cell-based; conditions: culture period of four weeks, antiviral drugs at 3 μM and 30 μM
Method: In Table 1, the primers and probes used in the examples are summarized. Standard NASBA nucleic acid amplification reactions were performed in a 20 μl reaction volume and contained: 40 mM Tris-pH 8.5, 70 mM KCl, 12 mM MgCl2, 5 mM dithiothreitol, 1 mM dNTPs (each), 2 mM rNTPs (each), 0.2 μM primer (each), 0.05 μM molecular beacon, 375 mM sorbitol, 0.105 μg/μl bovine serum albumin, 6.4 units AMV RT, 32 units T7 RNA polymerase, 0.08 units RNAse H and input nucleic acid. The complete mixture, except the enzymes, sorbitol and/or bovine serum albumin was, prior to adding the enzyme mixture, heated to 65° C. for two minutes in order to denature any secondary structure in the RNA and to allow the primers to anneal. After cooling the mixture to 41° C., the enzymes were added. The amplification took place at 41° C. for 90 minutes in a fluorimeter (CytoFluor 2000) and the fluorescent signal was measured every minute (using the filter set 530/25 nm and 485/30 nm). […]
To achieve quantification, a dilution series of target sequences for a particular primer set was amplified and the time points at which the reactions became positive (the time to positivity, TTP) were plotted against the input amounts of nucleic acid. This way a calibration curve was created that could be used to read TTP values of reactions with unknown amounts of input and deduce the input amount. […]

[2] = test system: Fibroblasts; assay: Lactate-pyruvate ratio in fibroblasts cultured with ddC; format: cell-based
Method: Fibroblasts were cultured in the presence of the anti-retroviral drug ddC. (30 μM) for four weeks. After that period, the cell culture continued in the presence, but also in the absence, of ddC for another six weeks. During this period of culture, part of the cells were harvested and analyzed for the ratio of lactate-pyruvate using standard methods known by persons skilled in the art.

| Compound | change in mitochondrial DNA to chromosomal DNA ratio [1] | culture time after which a significant increase of lactate pyruvate ratio can be observed ([2]; ddC 30 μM) | lactate-pyruvate ratio in continued culture in the absence of ddC ([2]; ddC 30 μM for four weeks, then without ddC) | lactate pyruvate ratio in the presence of ddC ([2]; ddC 30 μM, FIG. 17) | lactate-pyruvate ratio during continued culture in the presence of ddC ([2]; ddC 30 μM, after week four, another six weeks) |
| --- | --- | --- | --- | --- | --- |
| Cc1cn([C@H]2C[C@H](N=[N+]=[N-])[C@@H](CO)O2)c(=O)[nH]c1=O [AZT] | no measurable change |  |  |  |  |
| Nc1ccn([C@H]2CC[C@@H](CO)O2)c(=O)n1 [ddC] |  | four | drops to normal levels | increases | remains high |
